Assay results from the NIST ThermoML archive (doi:10.1021/je1005533).

Legend:
[1] = refractive index (other wavelength) (dimensionless); conditions: 101.3 kPa, Liquid, Wavelength=632.8 nm, Standard Abbe refractometry
[2] = refractive index (other wavelength) (dimensionless); xn = mol fraction of the nth substance listed; conditions: 101.3 kPa, Liquid, Wavelength=632.8 nm, Standard Abbe refractometry

COC(=O)OC [dimethyl carbonate]
[1]
Conditions | refractive index
308.25 K | 1.3607
309.26 K | 1.3602
310.32 K | 1.3597
311.36 K | 1.3592
312.44 K | 1.3587
313.49 K | 1.3582
314.53 K | 1.3577
315.56 K | 1.3572
316.66 K | 1.3567
317.67 K | 1.3562
318.72 K | 1.3557
327.67 K | 1.3514

COC(=O)OC [dimethyl carbonate] + CCCCCCCCCCCCCCCC
[2], x1 = 1
Conditions | refractive index
308.25 K | 1.3607
309.26 K | 1.3602
310.32 K | 1.3597
311.36 K | 1.3592
312.44 K | 1.3587
313.49 K | 1.3582
314.53 K | 1.3577
315.56 K | 1.3572
316.66 K | 1.3567
317.67 K | 1.3562
318.72 K | 1.3557

COC(=O)OC [dimethyl carbonate] + CCCCCCCCCCCCCCCCCC
Conditions | refractive index
[2], 327.67 K, x1 = 1 | 1.3514

CCCCCCCCCCCCCCCC [hexadecane]
[1]
Conditions | refractive index
308.21 K | 1.427
309.24 K | 1.4265
310.21 K | 1.4261
311.24 K | 1.4256
312.3 K | 1.4252
313.34 K | 1.4248
314.44 K | 1.4244
315.54 K | 1.4239
316.55 K | 1.4235
317.56 K | 1.4231
318.61 K | 1.4226

CCCCCCCCCCCCCCCCCC [octadecane]
Conditions | refractive index
[1], 327.67 K | 1.4231

CCCCCCCCCCCCCCCCCC [octadecane] + COC(=O)OC
[2], 327.67 K
Conditions | refractive index
x2 = 0 | 1.4231
x2 = 0.099 | 1.4203
x2 = 0.202 | 1.4169
x2 = 0.299 | 1.4132
x2 = 0.399 | 1.4089
x2 = 0.509 | 1.4034
x2 = 0.601 | 1.3979
x2 = 0.701 | 1.3907
x2 = 0.807 | 1.3806
x2 = 0.902 | 1.3685
